Here are results for three molecules from US20060005464A1, “Alkyl ethanolamine and biocide combination for hydrocarbon based fuels” (priority 2004, published 2006).

Holding throughout (assay type): cell-based
For test [1], the system named is mixed enteric bacteria (klebsiella pneumoniae, Proteus vulgarus, Citrobacter sp., Escherichia coli). In words: Maximum growth slope of mixed enteric bacteria culture with GROTAN plus alkanolamine. The settings on record: pH 9.0, TSB with emulsified oil, 24 hour. How it is done:
A culture of mixed enteric bacteria (klebsiella pneumoniae, Proteus vulgarus, Citrobacter sp., Escherichia coli) at pH=9.0 in TSB (trypticase soy broth) media mixed with emulsified oil was prepared. A biocide, GROTAN® {78.5% 1,3,5-(2-hydroxyethyl)-s-triazine solution in water} as sold by Troy Chemicals (Florham Park, N.J.) was added at varying concentrations to the culture in combination with 2500 ppm of one of the four alkanolamines, N-butylaminoethanol (BAE), diethanolamine (DEA), diglycolamine (DGA) or 2-amino-2-methyl-1-propanol (AMP). Optical density measurements were taken every 15 minutes over a 24 hour time period (total of 96 data points). The maximum growth slope was calculated by taking the 10 contiguous data points that result in the highest growth slope (units of OD per time) over the 24 hour period. Those 10 data points were subjected to a least squares linear fit to calculate the maximum growth slope.

In test [2] the test system is Pseudomonas Aeruginosa (ATCC27853). Put plainly: Microtiter plate growth of Pseudomonas Aeruginosa with amines and GROTAN. The conditions noted are these: for growth of Pseudomonas Aeruginosa (Table 1 entry): pH 8.5, 24 hours.
The test system of test [3] is Mycobacterium marinum (ATCC # 19420). In words: End-point optical density and MIC, Mycobacterium marinum (660 nm, 72 h). The settings on record: pH 8.5; for end-point optical density: 660 nm, after 72 hours. The procedure:
(§1) The impact of N-alkylalkanolamines on the control of the bacterial species Mycobacterium smegmatis (ATCC # 19420), a bacteria common in water-oil systems, was evaluated by measuring optical absorbance of samples treated with various alkyl ethanolaminesis DCHA=Dicyclohexylamine, OAE=Octylaminoethanol, ODEA=Octyldiethanolamine. Bacterial concentration was monitored indirectly via optical absorbance at 660 nm. The values reported are end-point optical densities in milliOD units after 48 hours. The media consisted of a standardized solution of clear nutrient broth (Middlebrook 7H10 with OADC supplement), amine, buffer (Tris) and water. The pH was adjusted initially to 8.5 with Tris buffer. The first column in the Table gives the amine concentration in ppm. The final two columns give data for cells that also contained 2 grams per liter of boric acid. In all cases, the values are averages of at least three replicates. The final row of the Table gives an estimate of the concentration range in which the amine in question starts to inhibit the growth of this bacterial species.
The impact of the N-alkylalkanolamines of Example 6 on the control of the bacterial species Mycobacterium marinum (ATCC # 19420), bacteria common in water-oil systems, was evaluated as described above in Example 6. Bacterial concentration in the experimental media was monitored indirectly via optical absorbance at 660 nm. The values reported are end-point optical densities in milliOD units after 72 hours. The media consisted of a standardized solution of clear nutrient broth (Middlebrook 7H10 with OADC supplement), amine, buffer (Tris) and water. The pH was adjusted initially to 8.5 with Tris buffer. The first column in the Table gives the amine concentration in ppm. In all cases, the values are averages of at least three replicates. The final row of the Table gives an estimate of the concentration range in which the amine in question starts to inhibit the growth of this bacterial species.

In test [4] the test system is Pseudomonas aeruginosa (ATCC 10145). In words: Maximum growth slope of Pseudomonas aeruginosa with Proxel DB20 (BIT) plus alkanolamine. The conditions noted are these: pH 8.5, TSB, 24 hour.
Procedure: A culture of Pseudomonas aeruginosa (ATCC 10145) at pH=8.5 in TSB (trypticase soy broth) media was prepared. The biocide Proxel DB20 (20% suspension of benzoisothiazolone (BIT) in water), as sold by Avecia, was added at varying concentrations in combination with 1000 ppm or 2000 ppm of the alkanolamines N-butylaminoethanol (BAE), 2-amino-2-methyl-1-propanol (AMP), dibutylaminoethanol (DBAE) or n-octylaminoethanol (OAE). Optical density measurements were taken every 15 minutes over a 24 hour time period (total of 96 data points). The maximum growth slope was calculated by taking the 10 contiguous data points that result in the highest growth slope (units of OD per time) over a 24 hour period. Those 10 data points were subjected to a least squares linear fit to calculate the maximum growth slope.
In test [5] the test system is Mycobacterium smegmatis (ATCC # 19420). Put plainly: End-point optical density and MIC, Mycobacterium smegmatis (660 nm, 48 h). The settings on record: for MIC (estimate of the concentration range in which the amine starts to inhibit growth): 48 hours; for end-point optical density: 660 nm, after 48 hours. The procedure:
as §1

For test [6] the test system is unchanged. Put plainly: End-point optical density of Mycobacterium smegmatis with N-alkyl alkanolamines (590 nm, 72 h). The conditions noted are these: for end-point optical density: 590 nm, after 72 hours, pH 8.5, tetrazolium dye.
Test [7] deals with Aureobasidium pullulans (ATCC 12536). In words: End-point optical density of Aureobasidium pullulans with MIT/CMIT plus alkanolamine. The settings on record: SAB media pH 8.5. How it is done: The impact of N-alkylalkanolamines on the control of the bacterial species Aureobasidium pullulans (ATCC 12536), a bacteria common in water-oil systems, was evaluated by measuring optical absorbance of samples treated with various concentrations of N-alkyl alkanolamines. […] SAB media at pH 8.5 (Tris buffer) was employed. Table 8 summarizes measurement of end-point optical density after 24 hours and 48 hours: […]

[8] abbreviates: 2500 ppm amine plus GROTAN 650 ppm.
Setting [9] is: 2500 ppm amine plus GROTAN 1650 ppm.

Each structure is given as a SMILES string.

Turning to `OCCNCCO` [DEA, diethanolamine], the maximum growth slope in test [1] (setting [8]) is 0.466 OD per time; in test [1] (setting [9]), 0.117 OD per time; in test [1] (2500 ppm amine, GROTAN 0 ppm), 0.723 OD per time.

Turning to `NCCOCCO` [DGA, diglycolamine, reference compound], the “growth of Pseudomonas Aeruginosa (Table 1 entry)” value in test [2] (amine 2000 ppm plus GROTAN 100 ppm) was 0.71; in test [2] (amine 2000 ppm plus GROTAN 250 ppm) it was 0.70; in test [2] (amine 2000 ppm plus GROTAN 500 ppm) it was 0.76; in test [2] (amine 2000 ppm plus GROTAN 1000 ppm), 0.32; in test [2] (amine 2000 ppm plus GROTAN 2000 ppm), 0.34; in test [2] (amine 2000 ppm, GROTAN 0 ppm) it was 0.76. Also, the “growth of Pseudomonas Aeruginosa (Table 1 entry)” value in test [2] (amine 4000 ppm plus GROTAN 100 ppm) turned out to be 0.70; in test [2] (amine 4000 ppm plus GROTAN 250 ppm), 0.69; in test [2] (amine 4000 ppm plus GROTAN 500 ppm) it was 0.36; in test [2] (amine 4000 ppm plus GROTAN 1000 ppm) it was 0.29; in test [2] (amine 4000 ppm plus GROTAN 2000 ppm) it was 0.36; in test [2] (amine 4000 ppm, GROTAN 0 ppm), 0.68. Moreover, the “enhancement in the biocidal effect of GROTAN” value in test [2] (conclusion from Table 1) was “not seen”. In addition, the maximum growth slope in test [1] (setting [8]) is 0.1955 OD per time; in test [1] (setting [9]), 0.0725 OD per time; in test [1] (2500 ppm amine, GROTAN 0 ppm), 0.796 OD per time.

On to `CCCCCCCCNCCO` [OAE, n-octylaminoethanol], for which the “MIC (estimate of the concentration range in which the amine starts to inhibit growth)” value in test [3] (72 hours) is listed as 1200-2000 ppm; in test [5] (pH 8.5, no boric acid), less than 500 ppm; in test [5] (with 2 grams per liter of boric acid), less than 500 ppm. For the same molecule, the end-point optical density in test [3] (amine 400 ppm) was found to be 0.4 milliOD; in test [3] (amine 800 ppm), 0.4 milliOD; in test [3] (amine 1200 ppm), 0.4 milliOD; in test [3] (amine 2000 ppm) it was 0 milliOD; in test [3] (amine 4000 ppm), 0 milliOD; in test [5] (amine 500 ppm plus 2 grams per liter of boric acid), 0.100 milliOD. The end-point optical density came to 0.184 milliOD in test [5] (amine 500 ppm, pH 8.5); 0.121 milliOD in test [5] (amine 1000 ppm plus 2 grams per liter of boric acid); 0.149 milliOD in test [5] (amine 1000 ppm, pH 8.5); 0.213 milliOD in test [5] (amine 1500 ppm, pH 8.5); 0.015 milliOD in test [5] (amine 2000 ppm plus 2 grams per liter of boric acid); 0.226 milliOD in test [5] (amine 2000 ppm, pH 8.5). Further, the end-point optical density in test [5] (amine 4000 ppm, pH 8.5) amounted to 0.205 milliOD; in test [6] (amine 470 ppm), 0 milliOD; in test [6] (amine 940 ppm) it was 0 milliOD; in test [6] (amine 1880 ppm), 0 milliOD; in test [6] (amine 3750 ppm), 0 milliOD; in test [6] (amine 7500 ppm), 0 milliOD. Moreover, the end-point optical density was 0.1 in test [7] (amine 200 ppm plus 50 ppm MIT/CMIT, 24 hours); 0.1 in test [7] (amine 200 ppm plus 50 ppm MIT/CMIT, 48 hours); 0 in test [7] (amine 500 ppm plus 50 ppm MIT/CMIT, 24 hours); 0 in test [7] (amine 500 ppm plus 50 ppm MIT/CMIT, 48 hours). In addition, the maximum growth slope amounted to 0.000 OD per time in test [4] (amine 1000 ppm plus BIT 150 ppm); 0.000 OD per time in test [4] (amine 1000 ppm plus BIT 250 ppm); 0.000 OD per time in test [4] (amine 1000 ppm plus BIT 500 ppm); 0.000 OD per time in test [4] (amine 1000 ppm, BIT 0 ppm); 0.000 OD per time in test [4] (amine 2000 ppm plus BIT 150 ppm); 0.000 OD per time in test [4] (amine 2000 ppm plus BIT 250 ppm). The maximum growth slope in test [4] (amine 2000 ppm plus BIT 500 ppm) is 0.000 OD per time; in test [4] (amine 2000 ppm, BIT 0 ppm) it was 0.000 OD per time. The “effectiveness against Mycobacteria” value in test [6] (compared with AMP, conclusion from Table 5) is recorded as “markedly more effective than AMP”.
